Reference: patent US10597388B2, “Pyridazinone herbicides” (FMC CORPORATION, priority 2014, dated 2020)

Legend:
Assay in all cases: Test D controlled growth environment herbicide test, pre- and postemergence
Format in all cases: in vivo
[1] = tested on: deadnettle (henbit deadnettle, Lamium amplexicaule)
Source text: (§1) Seeds of plant species selected from bluegrass (annual bluegrass, Poa annua), blackgrass (Alopecurus myosuroides), Canada thistle (Cirsium arvense), canarygrass (Phalaris minor), chickweed (common chickweed, Stellaria media), geranium, cutleaf (cutleaf geranium, Geranium dissectum), galium (catchweed bedstraw, Galium aparine), bromegrass, downy (downy bromegrass, Bromus tectorum), field poppy (Papaver rhoeas), field violet (Viola arvensis), foxtail, green (green foxtail, Setaria viridis), deadnettle (henbit deadnettle, Lamium amplexicaule), ryegrass, Italian (Italian ryegrass, Lolium multiflorum), kochia (Kochia scoparia), lambsquarters (Chenopodium album), oilseed rape (Brassica napus), pigweed (Amaranthus retroflexus), chamomile (scentless chamomile, Matricaria inodora), Russian thistle (Salsola kali), speedwell (bird's-eye speedwell, Veronica persica), barley, spring (spring barley, Hordeum vulgare), wheat, spring (spring wheat, Triticum aestivum), buckwheat, wild (wild buckwheat, Polygonum convolvulus), mustard, wild (wild mustard, Sinapis arvensis), oat, wild (wild oat, Avena fatua), radish, wild (wild radish, Raphanus raphanistrum), windgrass (Apera spica-venti), barley, winter (winter barley, Hordeum vulgare), and wheat, winter (winter wheat, Triticum aestivum) were planted into a silt loam soil and treated preemergence with test chemicals formulated in a non-phytotoxic solvent mixture which included a surfactant.
(§2) At the same time, these species were planted in pots containing Redi-Earth® planting medium (Scotts Company, 14111 Scottslawn Road, Marysville, Ohio 43041) comprising spaghnum peat moss, vermiculite, wetting agent and starter nutrients and treated with postemergence applications of the test chemicals formulated in the same manner. Plants ranged in height from 2 to 18 cm (1- to 4-leaf stage). Treated plants and controls were maintained in a controlled growth environment for 14 to 21 d after which time all species were compared to controls and visually evaluated. Plant response ratings, summarized in Table D, are based on a scale of 0 to 100 where 0 is no effect and 100 is complete control. A dash (-) response means no test result.

[2] = tested on: windgrass (Apera spica-venti)
Source text: as §1, §2

[3] = tested on: chickweed (common chickweed, Stellaria media)
Source text: as §1, §2

[4] = tested on: foxtail, green (green foxtail, Setaria viridis)
Source text: as §1, §2

[5] = tested on: canarygrass (Phalaris minor)
Source text: as §1, §2

[6] = tested on: Russian thistle (Salsola kali)
Source text: as §1, §2

kochia (Kochia scoparia) = tested on: kochia (Kochia scoparia)
Source text: as §1, §2

[7] = tested on: wheat, winter (winter wheat, Triticum aestivum)
Source text: as §1, §2

[8] = tested on: blackgrass (Alopecurus myosuroides)
Source text: as §1, §2

[9] = tested on: field violet (Viola arvensis)
Source text: as §1, §2

[10] = tested on: wheat, spring (spring wheat, Triticum aestivum)
Source text: as §1, §2

[11] = tested on: lambsquarters (Chenopodium album)
Source text: as §1, §2

[12] = tested on: ryegrass, Italian (Italian ryegrass, Lolium multiflorum)
Source text: as §1, §2

[13] = Postemergence, 31 g ai/ha, scale 0 to 100 (0 no effect, 100 complete control)
[14] = Postemergence, 125 g ai/ha, visual rating on scale 0 (no effect) to 100 (complete control), 14 to 21 d
[15] = Postemergence, 250 g ai/ha, scale 0 to 100 (0 no effect, 100 complete control)
[16] = Preemergence, 62 g ai/ha, scale 0 to 100 (0 no effect, 100 complete control)
[17] = Preemergence, 125 g ai/ha, scale 0 to 100 (0 no effect, 100 complete control)
[18] = Preemergence, 250 g ai/ha, scale 0 to 100 (0 no effect, 100 complete control)
[19] = postemergence, 62 g ai/ha, scale 0 to 100, 0 no effect, 100 complete control

COc1nn(C)c(=O)c(-c2c(C)ccc3ccccc23)c1O [Compound 54]
Deadnettle plant response rating [1, 13]: 100
Plant response rating, Deadnettle [1, 14]: 100
Plant response rating, Deadnettle [1, 15]: 100
Plant response rating (scale of 0 to 100), Deadnettle ([1]; Preemergence, 31 g ai/ha): 0
Plant response rating, Deadnettle [1, 16]: 60
Plant response rating, Deadnettle [1, 17]: 70
Plant response rating, Deadnettle [1, 18]: 95
Plant response rating, Deadnettle [1, 19]: 100
Windgrass plant response rating [2, 13]: 35
Plant response rating, Windgrass [2, 14]: 70
Plant response rating, Windgrass [2, 15]: 75
Plant response rating (scale of 0 to 100), Windgrass ([2]; Preemergence, 31 g ai/ha): 0
Plant response rating, Windgrass [2, 16]: 50
Plant response rating, Windgrass [2, 17]: 70
Plant response rating, Windgrass [2, 18]: 95
Plant response rating, Windgrass [2, 19]: 45
Chickweed plant response rating [3, 13]: 100
Plant response rating, Chickweed [3, 14]: 100
Plant response rating, Chickweed [3, 15]: 100
Plant response rating (scale of 0 to 100), Chickweed ([3]; Preemergence, 31 g ai/ha): 85
Plant response rating, Chickweed [3, 16]: 90
Plant response rating, Chickweed [3, 17]: 95
Plant response rating, Chickweed [3, 18]: 100
Plant response rating, Chickweed [3, 19]: 100
Foxtail, Green plant response rating [4, 13]: 55
Plant response rating, Foxtail, Green [4, 14]: 70
Plant response rating, Foxtail, Green [4, 15]: 80
Plant response rating (scale of 0 to 100), Foxtail, Green ([4]; Preemergence, 31 g ai/ha): 50
Plant response rating, Foxtail, Green [4, 16]: 60
Plant response rating, Foxtail, Green [4, 17]: 65
Plant response rating, Foxtail, Green [4, 18]: 100
Plant response rating, Foxtail, Green [4, 19]: 65
Canarygrass plant response rating [5, 13]: 35
Plant response rating, Canarygrass [5, 14]: 65
Plant response rating, Canarygrass [5, 15]: 75
Plant response rating (scale of 0 to 100), Canarygrass ([5]; Preemergence, 31 g ai/ha): 15
Plant response rating, Canarygrass [5, 16]: 55
Plant response rating, Canarygrass [5, 17]: 80
Plant response rating, Canarygrass [5, 18]: 90
Plant response rating, Canarygrass [5, 19]: 55
Russian Thistle plant response rating [6, 13]: 80
Plant response rating, Russian Thistle [6, 14]: 90
Plant response rating, Russian Thistle [6, 15]: 100
Plant response rating (scale of 0 to 100), Russian Thistle ([6]; Preemergence, 31 g ai/ha): 0
Plant response rating, Russian Thistle [6, 16]: 0
Plant response rating, Russian Thistle [6, 17]: 25
Plant response rating, Russian Thistle [6, 18]: 35
Plant response rating, Russian Thistle [6, 19]: 80
Kochia plant response rating (kochia (Kochia scoparia); [13]): 15
Plant response rating, Kochia (kochia (Kochia scoparia); [14]): 100
Plant response rating, Kochia (kochia (Kochia scoparia); [15]): 100
Plant response rating (scale of 0 to 100), Kochia (kochia (Kochia scoparia); Preemergence, 31 g ai/ha): 25
Plant response rating, Kochia (kochia (Kochia scoparia); [16]): 60
Plant response rating, Kochia (kochia (Kochia scoparia); [17]): 30
Plant response rating, Kochia (kochia (Kochia scoparia); [18]): 45
Plant response rating, Kochia (kochia (Kochia scoparia); [19]): 95
Wheat, Winter plant response rating [7, 13]: 0
Plant response rating, Wheat, Winter [7, 14]: 25
Plant response rating, Wheat, Winter [7, 15]: 30
Plant response rating (scale of 0 to 100), Wheat, Winter ([7]; Preemergence, 31 g ai/ha): 0
Plant response rating, Wheat, Winter [7, 16]: 0
Plant response rating, Wheat, Winter [7, 17]: 15
Plant response rating, Wheat, Winter [7, 18]: 35
Plant response rating, Wheat, Winter [7, 19]: 5
Blackgrass plant response rating [8, 13]: 25
Plant response rating, Blackgrass [8, 14]: 70
Plant response rating, Blackgrass [8, 15]: 75
Plant response rating (scale of 0 to 100), Blackgrass ([8]; Preemergence, 31 g ai/ha): 15
Plant response rating, Blackgrass [8, 16]: 30
Plant response rating, Blackgrass [8, 17]: 50
Plant response rating, Blackgrass [8, 18]: 75
Plant response rating, Blackgrass [8, 19]: 40
Field Violet plant response rating [9, 13]: 85
Plant response rating, Field Violet [9, 14]: 95
Plant response rating, Field Violet [9, 15]: 90
Plant response rating (scale of 0 to 100), Field Violet ([9]; Preemergence, 31 g ai/ha): 25
Plant response rating, Field Violet [9, 16]: 35
Plant response rating, Field Violet [9, 17]: 70
Plant response rating, Field Violet [9, 18]: 95
Plant response rating, Field Violet [9, 19]: 75
Wheat, Spring plant response rating [10, 13]: 0
Plant response rating, Wheat, Spring [10, 14]: 15
Plant response rating, Wheat, Spring [10, 15]: 25
Plant response rating (scale of 0 to 100), Wheat, Spring ([10]; Preemergence, 31 g ai/ha): 0
Plant response rating, Wheat, Spring [10, 16]: 0
Plant response rating, Wheat, Spring [10, 17]: 0
Plant response rating, Wheat, Spring [10, 18]: 45
Plant response rating, Wheat, Spring [10, 19]: 0
Lambsquarters plant response rating [11, 13]: 95
Plant response rating, Lambsquarters [11, 14]: 95
Plant response rating, Lambsquarters [11, 15]: 100
Plant response rating (scale of 0 to 100), Lambsquarters ([11]; Preemergence, 31 g ai/ha): 65
Plant response rating, Lambsquarters [11, 16]: 65
Plant response rating, Lambsquarters [11, 17]: 95
Plant response rating, Lambsquarters [11, 18]: 95
Plant response rating, Lambsquarters [11, 19]: 95
Ryegrass, Italian plant response rating [12, 13]: 80
Plant response rating, Ryegrass, Italian [12, 14]: 90
Plant response rating, Ryegrass, Italian [12, 15]: 95
Plant response rating (scale of 0 to 100), Ryegrass, Italian ([12]; Preemergence, 31 g ai/ha): 35
Plant response rating, Ryegrass, Italian [12, 16]: 90
Plant response rating, Ryegrass, Italian [12, 17]: 100
Plant response rating, Ryegrass, Italian [12, 18]: 100
Plant response rating, Ryegrass, Italian [12, 19]: 85
